Assay results published in ChEMBL document CHEMBL4765295, “Synthesis, pharmacological profile and 2D-QSAR studies of curcumin-amino acid conjugates as potential drug candidates” (Eur J Med Chem, 2020).
“And” between values parts separate entries of the source, which are not always exact repeats. Identical values can stand only once.

Tested on: Mus musculus
Assay: Analgesic activity in albino mouse assessed as protection at 10 mg/kg, ip measured after 60 mins by hot plate test (reference value: 0 %)
Type: functional
Details: 1 h

Row | SMILES | Activity [%]
1 | COc1cc(/C=C/C(=O)/C=C(O)/C=C/c2ccc(OC(=O)[C@@H](CCSC)NC(=O)OCc3ccccc3)c(OC)c2)ccc1OC(=O)[C@@H](CCSC)NC(=O)OCc1ccccc1 | 59.1

Tested on: Staphylococcus aureus
Assay: Antibacterial activity against Staphylococcus aureus ATCC 25923 incubated for 18 hrs by agar dilution method
Type: functional
Details: not given

Row | MIC | SMILES
2 | 0.125 µg/mL and 0.139 µM | COc1cc(/C=C/C(=O)/C=C(O)/C=C/c2ccc(OC(=O)[C@@H](CCSC)NC(=O)OCc3ccccc3)c(OC)c2)ccc1OC(=O)[C@@H](CCSC)NC(=O)OCc1ccccc1

Tested on: Rattus norvegicus
Assay: Anti-inflammatory activity in Wistar rat assessed as inhibition of carrageenan-induced paw edema at 10 mg/kg, ip pretreated for 1 hr followed by carrageenan challenge and measured after 1 hr relative to control (reference value: 0.00 +/-0.02 %)
Type: functional
Details: time 2 hrs

Row | SMILES | inhibition in vivo at 10 mg/kg [%]
3 | COc1cc(/C=C/C(=O)/C=C(O)/C=C/c2ccc(OC(=O)[C@@H](CCSC)NC(=O)OCc3ccccc3)c(OC)c2)ccc1OC(=O)[C@@H](CCSC)NC(=O)OCc1ccccc1 | 79

Tested on: Mus musculus
Assay: Analgesic activity in albino mouse assessed reduction in acetic acid-induced abdominal writhing by measuring writing reflex at 10 mg/kg, ip pretreated for 1 hr followed by acetic acid challenge and measured starting 5 mins post acetic acid challenge for 10 mins (reference value: 42.4 +/- 1.02)
Type: functional
Details: time 75 min, 1.25 h

Row | SMILES | Activity
4 | COc1cc(/C=C/C(=O)/C=C(O)/C=C/c2ccc(OC(=O)[C@@H](CCSC)NC(=O)OCc3ccccc3)c(OC)c2)ccc1OC(=O)[C@@H](CCSC)NC(=O)OCc1ccccc1 | 34.8

Tested on: Mus musculus
Assay: Analgesic activity in albino mouse assessed protection against acetic acid-induced abdominal writhing at 10 mg/kg, ip pretreated for 1 hr followed by acetic acid challenge and measured starting 5 mins post acetic acid challenge for 10 mins relative to indomethacin
Type: functional
Details: time 75 min, 1.25 h

Row | SMILES | Activity [%]
5 | COc1cc(/C=C/C(=O)/C=C(O)/C=C/c2ccc(OC(=O)[C@@H](CCSC)NC(=O)OCc3ccccc3)c(OC)c2)ccc1OC(=O)[C@@H](CCSC)NC(=O)OCc1ccccc1 | 29.1

Tested on: not listed separately
Assay: Ulcerogenic activity in fasted albino mouse assessed as average severity of ulcers in gastric mucosa at 10 mg/kg, po for 3 days (reference value: 0)
Type: toxicity, organism-based
Details: in vivo, 72 h, time 3 day

Row | SMILES | Activity
6 | COc1cc(/C=C/C(=O)/C=C(O)/C=C/c2ccc(OC(=O)[C@@H](CCSC)NC(=O)OCc3ccccc3)c(OC)c2)ccc1OC(=O)[C@@H](CCSC)NC(=O)OCc1ccccc1 | 0

Tested on: Rattus norvegicus
Assay: Anti-inflammatory activity in Wistar rat assessed as inhibition of carrageenan-induced paw edema at 10 mg/kg, ip pretreated for 1 hr followed by carrageenan challenge and measured after 4 hr relative to control (reference value: 0.00 +/-0.4 %)
Type: functional
Details: time 5 hrs

Row | SMILES | inhibition in vivo at 10 mg/kg [%]
7 | COc1cc(/C=C/C(=O)/C=C(O)/C=C/c2ccc(OC(=O)[C@@H](CCSC)NC(=O)OCc3ccccc3)c(OC)c2)ccc1OC(=O)[C@@H](CCSC)NC(=O)OCc1ccccc1 | 94

Tested on: Rattus norvegicus
Assay: Antiinflammatory activity in Wistar rat model of carrageenan-induced paw edema assessed as reduction in thickness of paw edema at 10 mg/kg, ip pretreated for 1 hr followed by carrageenan challenge and measured after 2 hrs (reference value: 2.06 +/-0.09 mm)
Type: functional
Details: time 3 hrs

Row | SMILES | Activity [mm]
8 | COc1cc(/C=C/C(=O)/C=C(O)/C=C/c2ccc(OC(=O)[C@@H](CCSC)NC(=O)OCc3ccccc3)c(OC)c2)ccc1OC(=O)[C@@H](CCSC)NC(=O)OCc1ccccc1 | 0.41

Tested on: Mus musculus
Assay: Analgesic activity in albino mouse assessed as protection at 10 mg/kg, ip measured after 30 mins by hot plate test (reference value: 0 %)
Type: functional
Details: 0.5 h

Row | SMILES | Activity [%]
9 | COc1cc(/C=C/C(=O)/C=C(O)/C=C/c2ccc(OC(=O)[C@@H](CCSC)NC(=O)OCc3ccccc3)c(OC)c2)ccc1OC(=O)[C@@H](CCSC)NC(=O)OCc1ccccc1 | 9.2

Tested on: Rattus norvegicus
Assay: Antiinflammatory activity in Wistar rat model of carrageenan-induced paw edema assessed as reduction in thickness of paw edema at 10 mg/kg, ip pretreated for 1 hr followed by carrageenan challenge and measured after 4 hrs (reference value: 1.40 +/-0.10 mm)
Type: functional
Details: time 5 hrs

Row | SMILES | Activity [mm]
10 | COc1cc(/C=C/C(=O)/C=C(O)/C=C/c2ccc(OC(=O)[C@@H](CCSC)NC(=O)OCc3ccccc3)c(OC)c2)ccc1OC(=O)[C@@H](CCSC)NC(=O)OCc1ccccc1 | 0.08

Tested on: Rattus norvegicus
Assay: Anti-inflammatory activity in Wistar rat assessed as inhibition of carrageenan-induced paw edema at 10 mg/kg, ip pretreated for 1 hr followed by carrageenan challenge and measured after 3 hr relative to control (reference value: 0.00 +/-0.1 %)
Type: functional
Details: time 4 hrs

Row | SMILES | inhibition in vivo at 10 mg/kg [%]
11 | COc1cc(/C=C/C(=O)/C=C(O)/C=C/c2ccc(OC(=O)[C@@H](CCSC)NC(=O)OCc3ccccc3)c(OC)c2)ccc1OC(=O)[C@@H](CCSC)NC(=O)OCc1ccccc1 | 85

Tested on: Mus musculus
Assay: Analgesic activity in albino mouse assessed as forepaw licking/jumping latency time at 10 mg/kg, ip measured after 60 mins by hot plate test (reference value: 3.42 +/- 0.03 sec)
Type: functional
Details: 1 h

Row | SMILES | Time [s]
12 | COc1cc(/C=C/C(=O)/C=C(O)/C=C/c2ccc(OC(=O)[C@@H](CCSC)NC(=O)OCc3ccccc3)c(OC)c2)ccc1OC(=O)[C@@H](CCSC)NC(=O)OCc1ccccc1 | 5.44

Tested on: Splenocyte
Assay: Immunomodulatory activity in Swiss albino mouse splenocytes assessed as cell viability at 10 uM by measuring inhibition of stimulation index incubated for 72 hrs in presence of mitogenic stimulus phytohaemagglutinin by MTT assay relative to indomethacin
Type: functional
Details: read-out: Activity

Row | SMILES | viability at 10 µM [%]
13 | COc1cc(/C=C/C(=O)/C=C(O)/C=C/c2ccc(OC(=O)[C@@H](CCSC)NC(=O)OCc3ccccc3)c(OC)c2)ccc1OC(=O)[C@@H](CCSC)NC(=O)OCc1ccccc1 | 88.5

Tested on: Mus musculus
Assay: Analgesic activity in albino mouse assessed as protection at 10 mg/kg, ip measured after 90 mins by hot plate test (reference value: 0 %)
Type: functional
Details: 1.5 h

Row | SMILES | Activity [%]
14 | COc1cc(/C=C/C(=O)/C=C(O)/C=C/c2ccc(OC(=O)[C@@H](CCSC)NC(=O)OCc3ccccc3)c(OC)c2)ccc1OC(=O)[C@@H](CCSC)NC(=O)OCc1ccccc1 | 79.4

Tested on: Rattus norvegicus
Assay: Antiinflammatory activity in Wistar rat model of carrageenan-induced paw edema assessed as reduction in thickness of paw edema at 10 mg/kg, ip pretreated for 1 hr followed by carrageenan challenge and measured after 24 hrs (reference value: 0.83 +/-0.08 mm)
Type: functional
Details: time 25 hrs

Row | SMILES | Activity [mm]
15 | COc1cc(/C=C/C(=O)/C=C(O)/C=C/c2ccc(OC(=O)[C@@H](CCSC)NC(=O)OCc3ccccc3)c(OC)c2)ccc1OC(=O)[C@@H](CCSC)NC(=O)OCc1ccccc1 | 0.08

Tested on: Mus musculus
Assay: Analgesic activity in albino mouse assessed as protection at 10 mg/kg, ip measured after 120 mins by hot plate test (reference value: 0 %)
Type: functional
Details: 2 h

Row | SMILES | Activity [%]
16 | COc1cc(/C=C/C(=O)/C=C(O)/C=C/c2ccc(OC(=O)[C@@H](CCSC)NC(=O)OCc3ccccc3)c(OC)c2)ccc1OC(=O)[C@@H](CCSC)NC(=O)OCc1ccccc1 | 78.6

Tested on: Streptococcus pyogenes
Assay: Antibacterial activity against Streptococcus pyogenes ATCC 19615 incubated for 18 hrs by agar dilution method
Type: functional
Details: not given

Row | MIC | SMILES
17 | 0.125 µg/mL and 0.139 µM | COc1cc(/C=C/C(=O)/C=C(O)/C=C/c2ccc(OC(=O)[C@@H](CCSC)NC(=O)OCc3ccccc3)c(OC)c2)ccc1OC(=O)[C@@H](CCSC)NC(=O)OCc1ccccc1

Tested on: not listed separately
Assay: Ulcerogenic activity in fasted albino mouse assessed as ulcer index in gastric mucosa at 10 mg/kg, po for 3 days (reference value: 0)
Type: toxicity, organism-based
Details: in vivo, 72 h, time 3 day

Row | SMILES | UI
18 | COc1cc(/C=C/C(=O)/C=C(O)/C=C/c2ccc(OC(=O)[C@@H](CCSC)NC(=O)OCc3ccccc3)c(OC)c2)ccc1OC(=O)[C@@H](CCSC)NC(=O)OCc1ccccc1 | 0
